{"source": "patent US20250327027A1", "about": "“METHODS TO GENERATE ENHANCED TUMOR INFILTRATING LYMPHOCYTES THROUGH MICROFLUIDIC DELIVERY” (STEMCELL TECHNOLOGIES CANADA INC., priority 2021, published 2025)", "molecules": {"B1": {"name": "rhIL-12: recombinant human IL-12 added to culture (protein, UniProt P29459 23-219; P29460 23-328, looked up)", "Interleukin-12 subunit alpha": "RNLPVATPDPGMFPCLHHSQNLLRAVSNMLQKARQTLEFYPCTSEEIDHEDITKDKTSTVEACLPLELTKNESCLNSRETSFITNGSCLASRKTSFMMALCLSSIYEDLKMYQVEFKTMNAKLLMDPKRQIFLDQNMLAVIDELMQALNFNSETVPQKSSLEEPDFYKTKIKLCILLHAFRIRAVTIDRVMSYLNAS", "Interleukin-12 subunit beta": "IWELKKDVYVVELDWYPDAPGEMVVLTCDTPEEDGITWTLDQSSEVLGSGKTLTIQVKEFGDAGQYTCHKGGEVLSHSLLLLHKKEDGIWSTDILKDQKEPKNKTFLRCEAKNYSGRFTCWWLTTISTDLTFSVKSSRGSSDPQGVTCGAATLSAERVRGDNKEYEYSVECQEDSACPAAEESLPIEVMVDAVHKLKYENYTSSFFIRDIIKPDPPKNLQLKPLKNSRQVEVSWEYPDTWSTPHSYFSLTFCVQVQGKSKREKKDRVFTDKTSATVICRKNASISVRAQDRYYSSSWSEWASVPCS"}, "B2": {"name": "rhIL-7: recombinant human (rh) IL-7 (protein, UniProt P13232 26-177, looked up)", "Interleukin-7": "DCDIEGKDGKQYESVLMVSIDQLLDSMKEIGSNCLNNEFNFFKRHICDANKEGMFLFRAARKLRQFLKMNSTGDFDLHLLKVSEGTTILLNCTGQVKGRKPAALGEAQPTKSLEENKSLKEQKKLNDLCFLKRLLQEIKTCWNKILMGTKEH"}}, "key": {"[1]": {"test_system": "melanoma and colorectal TILs", "test": "Post thaw analysis of cryopreserved squeeze processed TILs (effect of DMSO and HSA)", "assay_type": "cell-based", "conditions": "DMSO 0% to 5%", "method": "To evaluate whether freeze-thaw (including any effect from one or more of the cryopreservatives) has an effect on the squeeze processed TILs described herein, the following methods were used and the mRNA translation and phenotypic expression were assessed. Briefly, cryopreserved, squeezed melanoma and colorectal TILs were thawed and resuspended in CTS OpTmizer media. Post thaw cell recovery and viability were measured via NC-200. Cells were plated in tissue culture-treated plates and incubated for 4, 24 hours, and 8 days in a 37° C. incubator. The TILs were squeezed were assessed at each time point including t=0 (immediately post thaw) by flow cytometry for viability, surface levels of mbIL-2 and mbIL-12, and phenotypic markers such as CCR7, CD45RO, CD62L, CD127, KLRG-1, CD25, CD69, CD39, CD103, and CD25.\nTo assess the potential impact from DMSO, the following TILs were formulated in varying concentrations of DMSO (i.e., 0%, 1.25%, 2.5%, and 5%): (1) TILs squeeze processed with mRNA encoding membrane-bound LL-2 and mRNA encoding IL-12; and (2) non-squeeze processed TILs. Each of the formulated samples also contained 5% human serum albumin. Then, the TILs were cryopreserved and subsequently thawed as described above."}, "[2]": {"test_system": "post-REP TILs", "test": "Engineered TIL resistance to intrinsic apoptosis induced by Venetoclax and S63548 (Apotracker, Bcl-2 FACS)", "assay_type": "cell-based, human", "experimental": "Fresh post-REP TILs were collected from a 6-well G-Rex plate, centrifuged at 400 rcf at room temperature, and then washed and resuspended to 3-10M/mL in AIM V and transferred to a T25 flask and cultured at 37° C. for 24 hr. The cells were then prepared for squeeze-processing. The cells were counted, filtered through a 40-um cell strainer, washed, and the concentration was adjusted to 60M/mL by adding XVivo-15.\nAs shown above in Table 13, Group A was used as a control (i.e., not contacted with any payload and not squeeze processed). Group 13 was squeeze processed without any payload at room temperature using a microfluidic constriction (70 μm depth, 4.5 un width, and 10 μm length) at 30 psi. Groups C-H were squeeze processed at room temperature with the payloads shown above, i.e., Group C: mbIL-7 mRNA; Group D: Bcl-2 mRNA; Group E: mbIL-7 mRNA+Bcl-2 mRNA; Group F: mbIL-2 mRNA; Group G: mbIL-2 mRNA+Bcl-2 mRNA; Group H: mbIL-2 mRNA+mbIL-7 mRNA+Bcl-2 mRNA. Groups C-H were squeeze processed using the same conditions as in Group B (i.e., microfluidic constriction: 70 μm depth, 4.5 μm width, and 10 μm length; at 30 psi). […]\nAt 24 hours, 200 ul of cells were aspirated and centrifuged at 400 ref for 4 minutes at room temperature. […] The cells were then analyzed using an Attune Flow cytometer."}, "[3]": {"test_system": "TILs", "test": "Effect of cytokine (IL-2 or IL-15) during TIL expansion (colorectal tumor)", "assay_type": "cell-based", "conditions": "for Cell Count on Day 13 / Viability on Day 13: replicate wells", "experimental": "Briefly, freshly resected colorectal tumor was rinsed in 1× Hank's Balanced Salt Solution (HBSS) with 10 µg/mL gentamicin and dissected into 8-27 mm^3 fragments using a forceps and scalpel. […] The G-Rex6M plate was then placed in a 37° C., 5% CO2 incubator for 3 days.\nOn day 3, the G-Rex6M plate was removed from the incubator. […] The G-Rex6M plate was returned to the 37° C., 5% CO2 incubator. On day 7 and 10, the G-Rex6M plate was removed from the incubator. […] The G-Rex6M plate was returned to the 37° C., 5% CO2 incubator.\n[…] The number and viability of the TILs was assessed using a NucleoCounter NC-200."}, "[4]": {"test_system": "post-REP TILs", "test": "Proliferative capacity of CD62L positive mbIL-2 and mbIL-12 engineered TILs", "assay_type": "cell-based, human", "conditions": "baseline CD62L positive and baseline CD62L negative fractions; day 4", "experimental": "Fresh TILs from two donors on day 14 of REP were prepared for squeeze-processing Donors were processed in parallel throughout the experiment. TILs were centrifuged at 400 rcf for 4 minutes at room temperature. The supernatant was aspirated, and the cell populations were separately resuspended in 1 mL FACs buffer Cells were incubated at 4 C for 20 minutes with fluorescent anti-human antibody targeting CD62L. After incubation 150 μL of FACs isolation buffer were added to each sample and the samples were spun at 400 rcf for 4 minutes. Cells were then isolated using magnetic beads that select based on fluorescence as a proxy for CD62L expression. Cell fractions were incubated for 20 minutes at 37 C with 1 μM final cytoplasmic dyes; CD62L positive cells were incubated with dye that excites/emits at 405/450 nm and CD62L negative cells were incubated with dye that excites/emits at […]. The cells were then pooled, counted, filtered through a 40-um cell strainer, washed, and the concentration was adjusted to 50-80M/mL by adding XVivo-15.\nAs shown above in Table 18, Groups A and E were used as controls (i.e., not contacted with any payload and not squeeze processed). […]\nAt days 1, 4, and 6, 200 ul of cells were aspirated and centrifuged at 400 rcf for 4 minutes at room temperature. […] The cells were then analyzed using an Attune Flow cytometer."}, "[5]": {"test_system": "post-REP TILs", "test": "mbIL-7 and Bcl-2 engineered TILs resistance to rhIL-7 sink effect (viability)", "assay_type": "cell-based, human", "conditions": "day 5; 250 μg/mL mbIL-7 mRNA", "experimental": "Three 50M cell vials were thawed and diluted with FACs buffer. […] Cells were transferred to a T75 flask and cultured at 37° C. To allow the cells to recover from thaw, cells were cultured for 72 hr.\nCells were prepared for squeeze-processing. Cells were collected, centrifuged at 400 rcf at room temperature, and then washed, resuspended to 3-10M/mL in AIM V media without rhIL-2 to remove rhIL-2-dependent support prior to squeeze processing, transferred to a T25 flask, and cultured at 37° C. for 24 hours. The cells were then counted, filtered through a 40-um cell strainer, washed, and the concentration was adjusted to 50M/mL by adding XVivo-15.\nAs shown above in Table 19, Group A was used as a control (i.e., not contacted with any payload and not squeeze processed). Group 13 was squeeze processed without any payload at room temperature using microfluidic constrictions (70 μm depth, 4.5 m width, and 10 μm length) at 30 psi. […]\nAt days 1 and 5, 200 ul of cells were aspirated and centrifuged at 400 rcf for 4 minutes at room temperature. […] The cells were then analyzed using an Attune Flow cytometer."}}, "note": "Several values for one entry are separate records, joined by “and”; a condition that tells them apart may be missing. Identical values can stand only once."}
{"molecule": "C[S+](C)[O-]", "note": "[DMSO]", "values": [{"measurement": "translation of the delivered mRNAs post-thaw", "setting": "[1]", "result": "did not have a negative impact on the translation of the delivered mRNAs"}, {"measurement": "viability over time after thaw", "setting": "[1]; squeeze-processed and unprocessed TILs", "result": "less DMSO also led to lower viability over time after thaw"}]}
{"molecule": "CC1(C)CCC(CN2CCN(c3ccc(C(=O)NS(=O)(=O)c4ccc(NCC5CCOCC5)c([N+](=O)[O-])c4)c(Oc4cnc5[nH]ccc5c4)c3)CC2)=C(c2ccc(Cl)cc2)C1", "note": "[Venetoclax]", "values": [{"measurement": "apoptosis as measured by Apotracker dye", "setting": "[2]; 10, 100 or 1000 nM each of Venetoclax and S63548, 24 hours", "result": "induced apoptosis"}, {"measurement": "concentration with strongest dynamic range of cell killing", "setting": "[2]; Venetoclax and S63548 together", "result": 10, "unit": "nM"}]}
{"molecule": "IL-15: recombinant IL-15 added to culture media", "values": [{"measurement": "Cell Count on Day 13", "setting": "[3]; 500 U/mL IL-15", "result": "1.92 × 10^7 and 8.32 × 10^6"}, {"measurement": "Viability on Day 13", "setting": "[3]; 500 U/mL IL-15", "result": "96.5% and 93.3%"}, {"measurement": "Cell Count on Day 13", "setting": "[3]; 3,000 U/mL IL-15", "result": "3.34 × 10^6 and 2.96 × 10^7"}, {"measurement": "Viability on Day 13", "setting": "[3]; 3,000 U/mL IL-15", "result": "94.8% and 91.3%"}, {"measurement": "TIL expansion in culture", "setting": "[3]; colorectal tumor fragments", "result": "promote TIL expansion"}]}
{"molecule": "B1", "values": [{"measurement": "CD62L positive cells", "setting": "[4]", "result": "enriched"}]}
{"molecule": "B2", "values": [{"measurement": "rhIL-7 support giving viability equal to mbIL-7-engineered TILs", "setting": "[5]", "result": 10, "unit": "ng/mL"}]}
